This is an account of results in US12497666B2, “Nucleic acid biomarker and use thereof” (Daiichi Sankyo Co., Ltd., priority 2013, dated 2025).

One data set concerns Calu-3. Briefly: Xenograft tumor growth inhibition by U3-1287, Calu-3. It counts as in vivo. Conditions: Calu-3 xenograft in mice, NSCLC; tumor volumes vs control mice. As to the method:
(§1) The HRG biomarker was identified by analysing the anti-tumor activity of the anti-HER3 antibody U3-1287 on various human cancer xenografts in vivo and analysis of the expression of HRG of these cell lines in vitro. Human tumor cell lines of various indications were grown as xenografts in mice and treated with the […] antibody U3-1287 for several weeks. Inhibition of tumor growth was analysed by comparing the tumor volumes of control mice and mice treated with U3-1287. Human tumor cell lines were grown in vitro and analysed for HRG RNA expression by PCR.

Another data set has as its system MCF-7. Briefly: Xenograft tumor growth inhibition by U3-1287, MCF-7. It counts as in vivo. Conditions: MCF-7 xenograft in mice, BC FISH + ve; tumor volumes vs control mice. How it is done: as §1
The next data set relates to CaOV3. Briefly: Reduction of phospho-HER3 and phospho-AKT levels by Western blotting, CaOV3. It is filed as cell-based, human. The settings on record: CaOV3, no basal HER3 activation, stimulated with exogenous heregulin. How it is done: (§2) FIG. 14 depicts efficacy determined in vitro by measuring reduction of phospho-HER3 and phospho-AKT levels by Western blotting.
(§3) U3-1287 efficacy was determined in vitro by measuring reduction of phospho-HER3 and phospho-AKT levels.

In data set [1] the test system is BT474. Briefly: Xenograft tumor growth inhibition by U3-1287, BT474. It counts as in vivo. The settings on record: BT474 xenograft in mice, BC FISH + ve; tumor volumes vs control mice. How it is done: as §1
In the next data set the test system is NCI-H441. Briefly: Xenograft tumor growth inhibition by U3-1287, NCI-H441. It is filed as in vivo. Conditions: NCI-H441 xenograft in mice, NSCLC; tumor volumes vs control mice. How it is done:
as §1

A further data set deals with NC-H1975. Briefly: Xenograft tumor growth inhibition by U3-1287, NC-H1975. It is filed as in vivo. The settings on record: NC-H1975 xenograft in mice, NSCLC; tumor volumes vs control mice. As to the method: as §1
Data set [2] can be described thus: Phase 1 monotherapy study of patritumab.
Protocol: A higher maintenance dose level of 18 mg/kg was also included to accommodate the possible effect of reduced tumor tissue penetration in the clinical setting relative to animal models.
Another data set concerns Sum225. Briefly: Xenograft tumor growth inhibition by U3-1287, Sum225. It counts as in vivo. Conditions: Sum225 xenograft in mice, BC FISH + ve; tumor volumes vs control mice. As to the method:
as §1

In a further data set the test system is HT-144. Briefly: Xenograft tumor growth inhibition by U3-1287, HT-144. It counts as in vivo. The settings on record: HT-144 xenograft in mice, Melanoma; tumor volumes vs control mice. As to the method:
as §1

In a further data set the test system is HCC 1569. Briefly: Xenograft tumor growth inhibition by U3-1287, HCC 1569. Conditions: HCC 1569 xenograft in mice, BC FISH + ve; tumor volumes vs control mice. It is filed as in vivo. As to the method: as §1
The test system of another data set is MDA-MB453. Briefly: Xenograft tumor growth inhibition by U3-1287, MDA-MB453. It counts as in vivo. The settings on record: MDA-MB453 xenograft in mice, BC FISH + ve; tumor volumes vs control mice. How it is done:
as §1

A further data set relates to MKN-45. Briefly: Xenograft tumor growth inhibition by U3-1287, MKN-45. It counts as in vivo. The settings on record: MKN-45 xenograft in mice, Gastric; tumor volumes vs control mice. How it is done:
as §1

A further data set relates to ZR75-1. Briefly: Xenograft tumor growth inhibition by U3-1287, ZR75-1. It is filed as in vivo. The settings on record: ZR75-1 xenograft in mice, BC FISH + ve; tumor volumes vs control mice. As to the method: as §1
In data set [3] the test system is A549. Briefly: Xenograft tumor growth inhibition by U3-1287, A549. It counts as in vivo. Conditions: A549 xenograft in mice, NSCLC; tumor volumes vs control mice. As to the method:
as §1

For the next data set, the system named is HT-29. Briefly: Xenograft tumor growth inhibition by U3-1287, HT-29. It counts as in vivo. The settings on record: HT-29 xenograft in mice, Colon; tumor volumes vs control mice. As to the method: as §1
The subject of another data set is BxPC3. Briefly: Xenograft tumor growth inhibition by U3-1287, BxPC3. The settings on record: BxPC3 xenograft in mice, Pancreas; tumor volumes vs control mice. It counts as in vivo. As to the method: as §1
Data set [4] has as its system A549. Briefly: Reduction of phospho-HER3 and phospho-AKT levels by Western blotting, A549. It is filed as cell-based, human. Conditions: A549, endogenously express heregulin. As to the method: as §2, §3
The test system of data set [5] is BT474. Briefly: HER3 phosphorylation by Western blot, BT474. It is filed as cell-based, human. An excerpt:
FIG. 15 depicts Western blots showing that U3-1287 can block […] basal HER3 phosphorylation.

For another data set, the system named is A375. Briefly: Xenograft tumor growth inhibition by U3-1287, A375. The settings on record: A375 xenograft in mice, Melanoma; tumor volumes vs control mice. It is filed as in vivo. As to the method: as §1
The next data set has as its system FaDu. Briefly: Xenograft tumor growth inhibition by U3-1287, FaDu. It is filed as in vivo. Conditions: FaDu xenograft in mice, Head&Neck; tumor volumes vs control mice. How it is done: as §1

For “patritumab: anti-HER3 antibody; U3-1287 corresponds to patritumab”, the “In vivo efficacy (SA)” value is listed as “Yes” in the data set with Calu-3; “No” in the data set on MCF-7; “No” in the data set with BT474 [1]; “No” in the data set on NCI-H441; “Yes” in the data set on NC-H1975; “No” in the data set with Sum225. Also, the “In vivo efficacy (SA)” value with HT-144 is recorded as “No”; in the data set on HCC 1569, “No”; with MDA-MB453, “No”; in the data set on MKN-45, “Yes”; in the data set on ZR75-1, “No”; in the data set with A549 [3] it was “Yes”. The “In vivo efficacy (SA)” value with HT-29 is on record as “Yes”; in the data set on BxPC3, “Yes”; with A375, “No”; in the data set on FaDu it was “Yes”. Moreover, the “HER3 phosphorylation (phospho-HER3 and phospho-AKT levels)” value in the data set with CaOV3 is “could be blocked”. Besides, the maximum tolerated dose result in data set [2] (Phase 1 study) was “not reached”. In addition, in data set [2] (monotherapy Phase 1 study), the dose limiting toxicity entry is on record as “lack of dose limiting toxicity”. Also, the “Basal HER3 phosphorylation (phospho-HER3 and phospho-AKT levels)” value in the data set on A549 [4] was “Basal HER3 phosphorylation could be blocked”. Also, the “efficacy on HER3 phosphorylation” value is listed as “this could be overcome by exogenously added heregulin” in the data set on BT474 [5] (BT474 HRG: exogenously added heregulin) and “no efficacy” with BT474 [5] (BT474 basal: basal HER3 phosphorylation, no heregulin expression).
